# Tested on: 855422-203-R-J1-PDC complex spheroids, viability
# Assay: Anticancer human tumor 855422-203-R-J1-PDC patient-derived bladder carcinoma cell line growth inhibition [CLK]
# Settings: for IC50: curve of first compound; for viability, T/C: stronger effect = lower value
# Description: A high-throughput screen of multi-cell type tumor spheroids was designed to identify active combinations of […] and targeted small molecules. Complex spheroids include a stromal component modeled by human endothelial cells (HUVEC) and fibroblasts modeled by human mesenchymal stem cells (MSCs). The concentration ranges selected for each drug and investigational agent were based upon clinically achievable concentrations if the clinical Cmax of the agent was known.
# Compounds. The drugs and investigational agents: cirtuvivint (SM08502; NSC835563), CC-671 (NSC850746), vemurafenib (NSC761431), tapotoclax (NSC804041), sotorasib (NSC818433), adagrasib (NSC831453), MRTX-1133 (NSC836407), BAY2416964 (NSC825713), copanlisib (NSC816437), inavolisib (NSC800729), abemaciclib (NSC768073), osimertinib (NSC779217), entinostat (NSC756642), eltanexor (KPT-8602, NSC794443), venetoclax (NSC766270), ceralasertib (NSC777638), bortezomib (NSC756655), olaparib (NSC753686), talazoparib (NSC767125), alisertib (NSC759677), peposertib (NSC802822), gemcitabine (NSC613327), 5-fluorouracil (NSC19893), SN-38 (NSC673596), oxaliplatin (NSC266046), paclitaxel (NSC125973), and doxorubicin (NSC123127), were obtained from the National Cancer Institute (NCI) Developmental Therapeutics Program Chemical Repository. The FDA-approved anticancer drug set is available from the Developmental Therapeutics Program at https://dtp.cancer.gov/organization/dscb/obtaining/available plates.htm. […] The stock solutions were prepared in dimethyl sulfoxide (DMSO, Sigma-Aldrich, St. Louis, MO, cat. D2650), except for the platinum complexes which were prepared in saline (Quality Biological, Gaithersburg, MD, cat. 114-055-101), at 800-fold the tested concentration and stored at -70 degrees C prior to their use. All drugs and investigational agents were tested over a range starting from a high concentration at or near the clinical Cmax and decreasing in half-log increments. If the clinical Cmax for an agent had not been determined, the highest concentration tested was 10 microM.
# Cell Culture. All cells were maintained in an incubator at 37 degrees C and 5% CO2 with 95% humidity. The PDC lines were cultured according to standard operating procedures established by the NCI PDMR. Briefly, all PDCs were thawed and cultured in Matrigel-coated flasks prepared with a working solution of 1X Ham's F-12 nutrient mix, without supplementation (Invitrogen, Waltham, MA, cat. 11765054), 100 U/mL penicillin-streptomycin (Invitrogen, cat. 15140122), and 2.5% Matrigel (Corning Inc., Corning, NY, cat. 354248) for the first three passages. The 947758-054-R-J2-PDC line was cultured in 6B/Colon 1A media, which includes advanced DMEM/F-12 (Thermo Fisher Scientific, cat. 12634028), 10 mM HEPES (Thermo Fisher Scientific, cat. 15630080), 1X GlutaMAX supplement (Thermo Fisher Scientific, cat. 35050061), 0.1 mg/mL primocin (InvivoGen, cat. ant-pm-2), 10% defined fetal bovine serum, heat inactivated (HyClone Laboratories Inc., cat. SH30070.03HI), 1.25 mM N-Acetyl-L-cysteine (Sigma-Aldrich, cat. A9165), 10 mM nicotinamide (Sigma-Aldrich, cat. N0636), 1X B-27 supplement (Thermo Fisher Scientific, cat. 17504044), 1X N-2 supplement (Thermo Fisher Scientific, cat. 17502048), and 10 microM Y-27632 dihydrochloride (Tocris Bioscience, cat. 1254). The 876862-298-R-J1-PDC was cultured in 6E media, which includes all 6B/Colon 1A media components plus 50% L-WRN conditioned media (ATCC, cat. CRL-3276), 50 ng/mL recombinant human EGF recombinant protein (hEGF; Thermo Fisher Scientific, cat. PHG0311), 10 ng/mL recombinant human fibroblast growth factor 10 (hGFG-10; PeproTech, cat. 100-26), 1 ng/mL recombinant human fibroblast growth factor 2 (hFGF-2; PeproTech, cat. 100-18B), and 1 µM prostaglandin E2 (PGE2; Tocris, cat. 2296). The 227483-062-R1-J1-PDC line was cultured in Panc media, containing all 6E components except hFGF-2, with the addition of 500 nM SB-431542 (Selleckchem, cat. S1067) and 10 nM gastrin (Tocris, cat. 3006). […]
# 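Also: spheroids exposed to drugs for seven days before readout.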
# 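For viability, T/C in this document: 100% = DMSO vehicle control wells.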
structure (smiles),measurement,setting,value
CC(C)CC(NC(=O)C(Cc1ccccc1)NC(=O)c1cnccn1)B(O)O (configuration not stated) + CNC(=O)c1ccc(Nc2nc(OC3CCCC3)c3c(-c4ccc5nc(C)oc5c4)c[nH]c3n2)c(OC)c1,IC50,second compound 0.0316 µM,< 0.949 nM
same,IC50,second compound 0.1 µM,< 0.949 nM
same,IC50,second compound 0.316 µM,< 0.949 nM
same,IC50,second compound 1 µM,< 0.949 nM
same,IC50,second compound 3.16 µM,< 0.949 nM
same,IC50,second compound 10 µM,< 0.949 nM
same,"viability, T/C","second compound 0.0316 µM, first compound 0.000949 µM",4.13%
same,"viability, T/C","second compound 0.0316 µM, first compound 0.003 µM",0.22%
same,"viability, T/C","second compound 0.0316 µM, first compound 0.00949 µM",0.2%
same,"viability, T/C","second compound 0.0316 µM, first compound 0.03 µM",0.21%
same,"viability, T/C","second compound 0.0316 µM, first compound 0.0949 µM",0.17%
same,"viability, T/C","second compound 0.0316 µM, first compound 0.3 µM",0.18%
same,"viability, T/C","second compound 0.1 µM, first compound 0.000949 µM",2.95%
same,"viability, T/C","second compound 0.1 µM, first compound 0.003 µM",0.2%
same,"viability, T/C","second compound 0.1 µM, first compound 0.00949 µM",0.18%
same,"viability, T/C","second compound 0.1 µM, first compound 0.03 µM",0.17%
same,"viability, T/C","second compound 0.1 µM, first compound 0.0949 µM",0.17%
same,"viability, T/C","second compound 0.1 µM, first compound 0.3 µM",0.49%
same,"viability, T/C","second compound 0.316 µM, first compound 0.000949 µM",2.47%
same,"viability, T/C","second compound 0.316 µM, first compound 0.003 µM",0.17%
same,"viability, T/C","second compound 0.316 µM, first compound 0.00949 µM",0.13%
same,"viability, T/C","second compound 0.316 µM, first compound 0.03 µM",0.13%
same,"viability, T/C","second compound 0.316 µM, first compound 0.0949 µM",0.12%
same,"viability, T/C","second compound 0.316 µM, first compound 0.3 µM",0.54%
same,"viability, T/C","second compound 1 µM, first compound 0.000949 µM",1.78%
same,"viability, T/C","second compound 1 µM, first compound 0.003 µM",0.13%
same,"viability, T/C","second compound 1 µM, first compound 0.00949 µM",0.13%
same,"viability, T/C","second compound 1 µM, first compound 0.03 µM",0.1%
same,"viability, T/C","second compound 1 µM, first compound 0.0949 µM",0.14%
same,"viability, T/C","second compound 1 µM, first compound 0.3 µM",0.1%
same,"viability, T/C","second compound 3.16 µM, first compound 0.000949 µM",1.68%
same,"viability, T/C","second compound 3.16 µM, first compound 0.003 µM",0.13%
same,"viability, T/C","second compound 3.16 µM, first compound 0.00949 µM",0.65%
same,"viability, T/C","second compound 3.16 µM, first compound 0.03 µM",0.08%
same,"viability, T/C","second compound 3.16 µM, first compound 0.0949 µM",0.1%
same,"viability, T/C","second compound 3.16 µM, first compound 0.3 µM",0.11%
same,"viability, T/C","second compound 10 µM, first compound 0.000949 µM",1.83%
same,"viability, T/C","second compound 10 µM, first compound 0.003 µM",0.15%
same,"viability, T/C","second compound 10 µM, first compound 0.00949 µM",0.13%
same,"viability, T/C","second compound 10 µM, first compound 0.03 µM",0.12%
same,"viability, T/C","second compound 10 µM, first compound 0.0949 µM",0.28%
same,"viability, T/C","second compound 10 µM, first compound 0.3 µM",0.12%

# From PubChem BioAssay AID2060609 (Molecular Pharmacology Branch, DTP, NCI, 2025)
